From patent US20220089568A1 (Janssen Biotech, Inc., priority 2019, published 2022) come the findings set out here.

SMILES strings stand for the structures.

The test system of one assay is MOLM-13 cells. Kind of assay: MOLM-13 Cellular Assay. The format is cell-based. Conditions: Homo sapiens, 72 hours exposure, cell viability by CellTiter-Glo. Here is the method:
The day prior to assay set-up, cells were pelleted, resuspended in fresh media, counted, and cells were plated at 0.4×10^6 cell/mL in a T150 flask. […] Cells were exposed to different concentrations of test compounds at 37° C., 5% CO2 for 72 hours immediately after seeding.
In general terms: Cellular ATP, detected with luciferase, serves as a proxy for viable cell number.

For a further assay, the target named is T1, human DHODH (Homo sapiens, UniProt Q02127).
T1 construct: purchased Proteros PR-0044
Description: DHODH Enzymatic Assay. The following applies: purified human DHODH; DCIP absorbance, end-point mode. The format is biochemical. Here is the method: To detect DHODH enzyme activities, dichloroindophenol (DCIP) is added as the final electron acceptor in the assay. DCIP can accept electrons from the reduced coenzyme Q generated in the assay, or from dihydroorotate (DHO) via FMN by binding presumably to the ubiquinone pocket. […] The assay buffer contained […], pH 7.5, 150 mM NaCl, 0.5 mM EDTA, and 0.1% Triton X-100 in MilliQ water. Substrate consisting of 20 mM DHO, 5 mM CoQ6, and 1 mM DCIP in assay buffer, initiates the reaction. […] Absorbance measurements were obtained using the BMG Phera Star plate-reading spectrophotomer. Purified human DHODH was purchased from Proteros (cat. No. PR-0044). Chemicals were purchased from Sigma-Aldrich, Teknova, and Avanti Polar Lipids. Liquid handling was performed using Labcyte Echo and Formulatrix Tempest.

T1 sequence (Q02127 whole entry): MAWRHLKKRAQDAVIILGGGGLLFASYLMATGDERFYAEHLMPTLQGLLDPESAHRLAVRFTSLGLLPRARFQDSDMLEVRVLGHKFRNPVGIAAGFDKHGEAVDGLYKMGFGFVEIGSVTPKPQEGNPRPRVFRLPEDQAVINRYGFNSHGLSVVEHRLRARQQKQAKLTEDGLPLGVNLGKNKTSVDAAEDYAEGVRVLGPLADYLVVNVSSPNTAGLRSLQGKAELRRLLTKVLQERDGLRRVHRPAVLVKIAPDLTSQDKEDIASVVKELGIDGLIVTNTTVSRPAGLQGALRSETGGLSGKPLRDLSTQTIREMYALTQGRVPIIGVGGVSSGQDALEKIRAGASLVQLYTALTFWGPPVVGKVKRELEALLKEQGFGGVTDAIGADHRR

`CCn1c(CO)nn(-c2nc(O[C@@H](C)C(F)(F)F)c(C(=O)Nc3ccc(C)nc3Cl)cc2F)c1=O` [Example 77, N-(2-Chloro-6-methyl-3-pyridyl)-6-[4-ethyl-3-(hydroxymethyl)-5-oxo-1,2,4-triazol-1-yl]-5-fluoro-2-[(1S)-2,2,2-trifluoro-1-methyl-ethoxy]pyridine-3-carboxamide]: the EC50 in the assay with MOLM-13 cells stood at 13.2 nM; on human DHODH, 14 nM.

As for `CCn1c(CO)nn(-c2nc(O[C@@H](C)C(F)(F)F)c(C(=O)Nc3nc(OC)ccc3Cl)cc2F)c1=O` [Example 21, (S)-N-(3-chloro-6-methoxypyridin-2-yl)-6-(4-ethyl-3-(hydroxymethyl)-5-oxo-4,5-dihydro-1H-1,2,4-triazol-1-yl)-5-fluoro-2-((1,1,1-trifluoropropan-2-yl)oxy)nicotinamide], the EC50 was 1.8 nM in the assay on MOLM-13 cells and 1.2 nM at human DHODH.

As for `CCn1c(CO)nn(-c2nc(O[C@@H](C)C(F)(F)F)c(C(=O)Nc3ccccc3C)cc2F)c1=O` [Example 120, 6-[4-Ethyl-3-(hydroxymethyl)-5-oxo-1,2,4-triazol-1-yl]-5-fluoro-N-(o-tolyl)-2-[(1S)-2,2,2-trifluoro-1-methyl-ethoxy]pyridine-3-carboxamide], the 50% effective concentration (EC50) is less than 0.169 nM in the assay on MOLM-13 cells and 0.246 nM on human DHODH.

For the compound `CCn1c(CO)nn(-c2nc(O[C@@H](C)C(F)(F)F)c(C(=O)Nc3ccnc(OC)c3Cl)cc2F)c1=O` [Example 24, (S)-N-(3-Chloro-2-methoxypyridin-4-yl)-6-(4-ethyl-3-(hydroxymethyl)-5-oxo-4,5-dihydro-1H-1,2,4-triazol-1-yl)-5-fluoro-2-((1,1,1-trifluoropropan-2-yl)oxy)nicotinamide], the concentration for a half-maximal effect (EC50) in the assay on MOLM-13 cells came to 10.1 nM; at human DHODH, 10.8 nM.

For `CCn1c(CO)nn(-c2nc(O[C@@H](C)C(F)(F)F)c(C(=O)Nc3c(C)nn(C)c3C)cc2F)c1=O` [Example 55, (S)-6-(4-Ethyl-3-(hydroxymethyl)-5-oxo-4,5-dihydro-1H-1,2,4-triazol-1-yl)-5-fluoro-2-((1,1,1-trifluoropropan-2-yl)oxy)-N-(1,3,5-trimethyl-1H-pyrazol-4-yl)nicotinamide], the EC50 in the assay with MOLM-13 cells is more than 100 nM; on human DHODH it was 17.3 nM.

Consider `CCn1c(CO)nn(-c2nc(O[C@@H](C)C(F)(F)F)c(C(=O)Nc3ncsc3C)cc2F)c1=O` [Example 32, (S)-6-(4-Ethyl-3-(hydroxymethyl)-5-oxo-4,5-dihydro-1H-1,2,4-triazol-1-yl)-5-fluoro-N-(5-methylthiazol-4-yl)-2-((1,1,1-trifluoropropan-2-yl)oxy)nicotinamide], for which the EC50 in the assay with MOLM-13 cells is 25.3 nM; on human DHODH, 13.6 nM.

Take `CCn1c(CO)nn(-c2nc(O[C@@H](C)C(F)(F)F)c(C(=O)Nc3cc(C(C)C)nn3C)cc2F)c1=O` [Example 59, (S)-6-(4-Ethyl-3-(hydroxymethyl)-5-oxo-4,5-dihydro-1H-1,2,4-triazol-1-yl)-5-fluoro-N-(3-isopropyl-1-methyl-1H-pyrazol-5-yl)-2-((1,1,1-trifluoropropan-2-yl)oxy)nicotinamide]: the results for the EC50 with MOLM-13 cells and on human DHODH were more than 100 nM and 98.1 nM, respectively.

As to `Cc1n[nH]c(Cl)c1NC(=O)c1cc(F)c(-n2nc(CF)n(CCO)c2=O)nc1O[C@@H](C)C(F)(F)F` [Example 115, N-(5-Chloro-3-methyl-1H-pyrazol-4-yl)-5-fluoro-6-[3-(fluoromethyl)-4-(2-hydroxyethyl)-5-oxo-1,2,4-triazol-1-yl]-2-[(1S)-2,2,2-trifluoro-1-methyl-ethoxy]pyridine-3-carboxamide], the EC50 in the assay with MOLM-13 cells came out at 1.25 nM; at human DHODH, 4.1 nM.

Take `CCn1c(CO)nn(-c2nc(O[C@@H](C)C(F)(F)F)c(C(=O)Nc3c(F)cnc(OC)c3C#N)cc2F)c1=O` [Example 117, N-(3-Cyano-5-fluoro-2-methoxy-4-pyridyl)-6-[4-ethyl-3-(hydroxymethyl)-5-oxo-1,2,4-triazol-1-yl]-5-fluoro-2-[(1S)-2,2,2-trifluoro-1-methyl-ethoxy]pyridine-3-carboxamide]: the 50% effective concentration (EC50) amounted to 15.6 nM in the assay on MOLM-13 cells and 1.03 nM on human DHODH.

One may read the EC50 as the midpoint of the concentration-response curve. Low values mean an effect from little substance, high ones a need for much substance.
